From patent US11413278B2, “Compounds and methods for promoting stress resistance” (priority 2015, dated 2022)
Read-outs that look alike come from different tables or passages of the source.

Tests used:
[1] = tested on: phosphorylated γH2A.X and TP53BP1; assay: DNA damage marker analysis (immuno-staining); conditions: for activity at 10 µM: Homo sapiens, WI-38, 24 h
Outline: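 WI-38 cells were cultured 24 h, then treated with compounds for 24 h; H2O2 (700 μM, 3 h) and doxorubicin (300 nM, 24 h) served as DNA-damage controls. After fixation, cells were immunostained for phospho-γH2A.X (Ser-139) and phospho-TP53BP1 (Ser-1778), counterstained with DAPI, and imaged by automated high-content microscopy.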

[2] = tested on: WI-38 cells; assay: MMS resistance assay; type: cell-based, human; conditions: for fold induction at 10 µM: Homo sapiens, 12 h, normalized ATP measurement
Outline: (§1)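 WI-38 cells were given compounds at five final concentrations (0.25–20 μM) in triplicate, followed by cadmium or MMS for 12 h. For MMS, medium was switched from OptiMEM+10% FBS to serum-free DMEM+2% BSA when compounds were added, 24 h before stressor. Two independent assays were run, analysed by global variance t-test.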

[3] = molecular target: T1, human PARP1 (Homo sapiens, UniProt P09874); assay: PARP inhibitor assay (HT Fluorescent Homogeneous PARP Inhibition Assay Kit); type: biochemical; conditions: score
T1 construct: purchased Trevigen
Outline: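 Human PARP1 with NAD and activated DNA, compounds at 10 μM final, 30 min at room temperature in dark. Resazurin/diaphorase cycling mix then added for 1 hr in dark before stop buffer; fluorescent homogeneous kit read-out.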

[4] = tested on: WI-38 cells; assay: CdCl2 (cadmium) resistance assay; type: cell-based, human; conditions: for fold induction at 10 µM: Homo sapiens, 12 h, normalized ATP measurement
Outline: as §1

[5] = tested on: C. elegans; type: in vivo, Caenorhabditis elegans
Outline: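 Worms treated in liquid with compounds in 96-well plates (4 wells each, FUdR to block progeny, 0.2% DMSO controls); H2O2 at 500 μM final added on day 4 of adulthood and viability scored daily.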

[6] = tested on: WI-38 cells; conditions: for No H2O2 stress treatment, at 10 uM (fold change): normalized ATP measurement
[7] = read-out: Experiment 1, H2A.X-P DNA damage foci staining (no H2O2 stress treatment), at 10 uM
[8] = read-out: Experiment 2, H2A.X-P DNA damage foci staining (no H2O2 stress treatment), at 10 uM
[9] = read-out: Experiment 2, H2A.X-P DNA damage foci staining (under H2O2 stress treatment), at 10 uM
[10] = read-out: Experiment 2, TP53BP1-P DNA damage foci staining (no H2O2 stress treatment), at 10 uM
[11] = read-out: Experiment 2, TP53BP1-P DNA damage foci staining (under H2O2 stress treatment), at 10 uM
[12] = Exp. 1, WI-38 cells, read-out: Exp. 1, under MMS stress treatment, at 10 uM (fold change)
[13] = Exp. 2, WI-38 cells, read-out: Exp. 2, under MMS stress treatment, at 10 uM (fold change)
[14] = score in summary of 38 core set hits
[15] = Exp. 1, WI-38 cells, read-out: Exp. 1, under Cd2Cl2 stress treatment, at 10 uM (fold change)
[16] = Exp. 2, WI-38 cells, read-out: Exp. 2, under Cd2Cl2 stress treatment, at 10 uM (fold change)
[17] = WI-38 cells, 10 μM, both stressors
[18] = WI-38 cells, 10 μM, (*) = compromised ability to protect cells from H2O2, could be due to stability issue
[19] = asterisks indicate the loss of the ability to protect cells from H2O2 over time
[20] = read-out: Est. ED50, dose response 0.6-20 μM, H2O2-resistance
[21] = derived from dose response curves, 0.6-20 uM, H2O2-resistance of WI-38 cells

T1 sequence (P09874 whole entry): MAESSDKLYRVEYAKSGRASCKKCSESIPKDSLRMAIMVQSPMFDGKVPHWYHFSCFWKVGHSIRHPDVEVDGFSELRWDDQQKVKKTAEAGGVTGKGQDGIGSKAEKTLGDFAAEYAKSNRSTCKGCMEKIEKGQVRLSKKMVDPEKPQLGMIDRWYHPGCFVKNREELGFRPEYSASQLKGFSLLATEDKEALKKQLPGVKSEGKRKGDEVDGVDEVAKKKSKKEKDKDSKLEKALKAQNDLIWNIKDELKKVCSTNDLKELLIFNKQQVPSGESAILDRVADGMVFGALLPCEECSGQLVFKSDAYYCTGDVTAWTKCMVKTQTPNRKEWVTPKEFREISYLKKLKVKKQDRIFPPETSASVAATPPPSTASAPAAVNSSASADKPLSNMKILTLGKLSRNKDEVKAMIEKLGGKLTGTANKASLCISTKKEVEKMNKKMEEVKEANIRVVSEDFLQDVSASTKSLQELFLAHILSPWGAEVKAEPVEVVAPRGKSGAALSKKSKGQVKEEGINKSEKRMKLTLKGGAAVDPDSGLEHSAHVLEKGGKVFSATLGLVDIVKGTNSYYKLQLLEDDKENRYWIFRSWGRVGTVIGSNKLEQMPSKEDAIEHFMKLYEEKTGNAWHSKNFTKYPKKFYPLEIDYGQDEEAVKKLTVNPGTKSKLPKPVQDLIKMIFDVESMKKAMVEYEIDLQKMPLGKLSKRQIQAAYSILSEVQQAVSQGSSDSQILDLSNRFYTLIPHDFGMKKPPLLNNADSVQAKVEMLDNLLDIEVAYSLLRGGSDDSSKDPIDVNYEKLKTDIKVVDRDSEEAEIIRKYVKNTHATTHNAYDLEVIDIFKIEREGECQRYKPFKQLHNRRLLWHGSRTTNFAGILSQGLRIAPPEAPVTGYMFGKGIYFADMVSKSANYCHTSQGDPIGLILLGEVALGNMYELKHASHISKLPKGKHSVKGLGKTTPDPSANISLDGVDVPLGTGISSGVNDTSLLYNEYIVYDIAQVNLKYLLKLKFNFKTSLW

SMILES | activity at 10 µM [1, 7] [%] | activity at 10 µM [1, 8] [%] | activity at 10 µM [1, 9] [%] | activity at 10 µM [1, 10] [%] | activity at 10 µM [1, 11] [%] | fold induction at 10 µM [2, 12] | fold induction at 10 µM [2, 13] | B = MMS resistant [2, 14] | B = MMS resistant ([2]; summary score) | D = Triple resistant ([2]; summary score) | L = PARP inhibition [3] | fold induction at 10 µM [4, 15] | fold induction at 10 µM [4, 16] | A = Cadmium resistant [4, 14] | A = Cadmium resistant ([4]; summary score) | C = H2O2- & Cd-resistant ([4]; summary score) | H2O2-resistant [6, 18] | No H2O2 stress treatment, at 10 uM (fold change) ([6]; WI-38 cells) | H2O2-resistant [6, 19] | EC50 [6, 20] [µM] | also measured
CCc1ccc(Oc2nc3ccccn3c(=O)c2/C=C(\C#N)C(=O)NC2CCCCC2)cc1 [Gr-5A] | 105 | 115 | 127 | 147 | 548 | 0.83 | 1.49 | 0 | 0 | 0 | 0 | 4.12 | 2.4 | 1 | 0 | 0 | YES | 1.14 | YES | 10.2 | P = Potential DNA-damaging ([1]; human, 24 h): 0; R = Potential DNA damaging ([1]; human, 24 h): 0; CdCl2-resistant [4]: YES; H2O2- & CdCl2-resistant [4]: YES; CdCl2-resistant ([4]; WI-38 cells, 10 μM): YES; H2O2- & CdCl2-resistant [4, 17]: YES; H2O2-resistance assay, 1st experiment ([5]; in vivo): YES;; L = H2O2-resistance in worms ([5]; in vivo): 0; N = H2O2-resistance in woms ([5]; in vivo): 0
Cc1ccc(S(=O)(=O)Nc2cccc3cccnc23)cc1 [Gr-3B] | 81.9 | 228 | 130 | 244 | 66.3 | 1.72 | 1.33 | 0 | 0 | 0 | 0 | 2.1 | 2.88 | 0 | 0 | 0 | YES | 0.90 | YES | 4.24 | P = Potential DNA-damaging ([1]; human, 24 h): 0; R = Potential DNA damaging ([1]; human, 24 h): 0; H2O2-resistance assay, 1st experiment ([5]; in vivo): YES;; L = H2O2-resistance in worms ([5]; in vivo): 0; N = H2O2-resistance in woms ([5]; in vivo): 0; EC50 [6, 21]: 8.5 µM
COc1ccc(C(=O)/C=C/c2ccc(F)cc2)c(OC)c1 [Gr-4A] | 80.2 | 75 | 105 | 155 | 287 | 0.95 | 1.52 | 0 | 0 | 0 | 0 | 1.98 | 1.66 | 1 | 1 | 1 | YES | 1.08 | YES | 4.97 | R = Potential DNA damaging ([1]; negative point, cultured human cells): 0; P = Potential DNA-damaging ([1]; summary score): 0; CdCl2-resistant [4]: YES; H2O2- & CdCl2-resistant [4]: YES; CdCl2-resistant ([4]; WI-38 cells, 10 μM): YES; H2O2- & CdCl2-resistant [4, 17]: YES; Assay 4: H2O2- & Cd-resistant ([4]; YES/NO): YES; Assay 2: Cadmium-resistant ([4]; YES/NO, * indicates partial): YES; N = H2O2-resistance in woms ([5]; score): 0; L = H2O2-resistance in worms ([5]; summary score): 0; Assay 1: H2O2-resistant ([6]; YES/NO, if NO, possibly due to repeated freezing/thawing of stocks): YES; EC50 [6, 21]: 9.1 µM
